pIC50, pKd: −log10 of the molar value.
Legend:
[1] = target: Receptor tyrosine-protein kinase erbB-4 (Homo sapiens, UniProt Q15303); test: Inhibition of ErbB4/HER4 (unknown origin)
[2] = target: T1, Tyrosine-protein kinase JAK3 (Homo sapiens, UniProt P52333); test: Inhibition of JAK3 (unknown origin)
T1 sequence (P52333 whole entry): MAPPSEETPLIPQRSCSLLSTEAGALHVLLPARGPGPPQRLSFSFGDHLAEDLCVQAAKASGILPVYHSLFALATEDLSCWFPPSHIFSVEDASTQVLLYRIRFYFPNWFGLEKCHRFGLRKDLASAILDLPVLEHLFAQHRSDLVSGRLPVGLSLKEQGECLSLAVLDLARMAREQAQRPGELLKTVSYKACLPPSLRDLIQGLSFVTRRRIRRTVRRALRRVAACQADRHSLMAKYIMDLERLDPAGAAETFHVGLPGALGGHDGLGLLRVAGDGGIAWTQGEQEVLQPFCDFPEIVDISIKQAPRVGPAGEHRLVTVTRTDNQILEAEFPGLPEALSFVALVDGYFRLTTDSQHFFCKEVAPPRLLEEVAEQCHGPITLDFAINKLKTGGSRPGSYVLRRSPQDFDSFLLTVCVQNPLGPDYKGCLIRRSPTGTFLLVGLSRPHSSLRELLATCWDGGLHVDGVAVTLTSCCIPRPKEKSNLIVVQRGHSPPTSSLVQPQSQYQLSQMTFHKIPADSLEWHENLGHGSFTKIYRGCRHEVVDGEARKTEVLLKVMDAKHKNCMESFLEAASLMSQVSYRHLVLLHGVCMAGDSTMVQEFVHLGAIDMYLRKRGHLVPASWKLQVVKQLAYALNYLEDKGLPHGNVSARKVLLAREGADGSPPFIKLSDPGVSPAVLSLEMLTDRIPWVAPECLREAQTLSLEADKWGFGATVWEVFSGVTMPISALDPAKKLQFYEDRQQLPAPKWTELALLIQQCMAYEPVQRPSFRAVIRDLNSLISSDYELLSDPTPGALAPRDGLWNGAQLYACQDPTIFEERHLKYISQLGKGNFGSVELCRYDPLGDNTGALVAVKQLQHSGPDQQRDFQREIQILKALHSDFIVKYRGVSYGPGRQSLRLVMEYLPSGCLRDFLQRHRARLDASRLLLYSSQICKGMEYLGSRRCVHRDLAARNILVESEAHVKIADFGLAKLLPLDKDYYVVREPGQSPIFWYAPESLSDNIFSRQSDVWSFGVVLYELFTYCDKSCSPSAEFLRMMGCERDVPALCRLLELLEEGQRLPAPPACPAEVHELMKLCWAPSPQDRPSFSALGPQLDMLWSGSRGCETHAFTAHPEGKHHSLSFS

[3] = target: T2, Tyrosine-protein kinase BTK (Homo sapiens, UniProt Q06187); test: Inhibition of BTK (unknown origin)
[4] = target: T2, Tyrosine-protein kinase BTK; test: Binding affinity to BTK in human Ramos cells assessed as protein occupancy at 20 hrs post compound wash out; type: cell-based
[5] = target: Tyrosine-protein kinase Lyn (Homo sapiens, UniProt P07948); test: Inhibition of LYN (unknown origin)
[6] = target: T3, Tyrosine-protein kinase Tec (Homo sapiens, UniProt P42680); test: Inhibition of TEC (unknown origin)
T3 sequence (P42680 whole entry): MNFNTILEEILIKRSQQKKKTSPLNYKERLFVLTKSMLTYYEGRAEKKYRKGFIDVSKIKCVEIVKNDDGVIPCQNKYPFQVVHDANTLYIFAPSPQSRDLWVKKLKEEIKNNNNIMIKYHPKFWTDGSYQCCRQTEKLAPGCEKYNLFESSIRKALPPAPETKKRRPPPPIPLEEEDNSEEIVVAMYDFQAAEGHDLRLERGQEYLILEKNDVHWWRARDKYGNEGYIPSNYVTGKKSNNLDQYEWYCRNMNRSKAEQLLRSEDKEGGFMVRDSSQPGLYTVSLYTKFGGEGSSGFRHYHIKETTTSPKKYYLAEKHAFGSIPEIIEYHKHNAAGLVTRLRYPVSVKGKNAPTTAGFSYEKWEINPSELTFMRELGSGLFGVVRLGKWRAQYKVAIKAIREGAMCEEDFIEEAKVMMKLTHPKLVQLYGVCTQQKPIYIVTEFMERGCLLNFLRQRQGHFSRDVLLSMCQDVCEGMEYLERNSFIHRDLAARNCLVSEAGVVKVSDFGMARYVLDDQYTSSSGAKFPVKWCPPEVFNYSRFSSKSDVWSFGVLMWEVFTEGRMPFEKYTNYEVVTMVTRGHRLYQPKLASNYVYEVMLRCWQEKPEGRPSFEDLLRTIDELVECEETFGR

Homo sapiens [7] = species: Homo sapiens; test: Selectivity for BTK (unknown origin) over EGFR (unknown origin)
[8] = target: T2, Tyrosine-protein kinase BTK; test: Binding affinity to BTK (unknown origin) assessed as residence time
Homo sapiens [9] = species: Homo sapiens; test: Selectivity for BTK (unknown origin) over ITK (unknown origin)
[10] = target: Ribosomal protein S6 kinase alpha-3 (Homo sapiens, UniProt P51812); test: Binding affinity to RPS6KA3 (unknown origin)
Homo sapiens [11] = species: Homo sapiens; test: Selectivity for BTK (unknown origin) over JAK3 (unknown origin)

T2 sequence (Q06187 whole entry): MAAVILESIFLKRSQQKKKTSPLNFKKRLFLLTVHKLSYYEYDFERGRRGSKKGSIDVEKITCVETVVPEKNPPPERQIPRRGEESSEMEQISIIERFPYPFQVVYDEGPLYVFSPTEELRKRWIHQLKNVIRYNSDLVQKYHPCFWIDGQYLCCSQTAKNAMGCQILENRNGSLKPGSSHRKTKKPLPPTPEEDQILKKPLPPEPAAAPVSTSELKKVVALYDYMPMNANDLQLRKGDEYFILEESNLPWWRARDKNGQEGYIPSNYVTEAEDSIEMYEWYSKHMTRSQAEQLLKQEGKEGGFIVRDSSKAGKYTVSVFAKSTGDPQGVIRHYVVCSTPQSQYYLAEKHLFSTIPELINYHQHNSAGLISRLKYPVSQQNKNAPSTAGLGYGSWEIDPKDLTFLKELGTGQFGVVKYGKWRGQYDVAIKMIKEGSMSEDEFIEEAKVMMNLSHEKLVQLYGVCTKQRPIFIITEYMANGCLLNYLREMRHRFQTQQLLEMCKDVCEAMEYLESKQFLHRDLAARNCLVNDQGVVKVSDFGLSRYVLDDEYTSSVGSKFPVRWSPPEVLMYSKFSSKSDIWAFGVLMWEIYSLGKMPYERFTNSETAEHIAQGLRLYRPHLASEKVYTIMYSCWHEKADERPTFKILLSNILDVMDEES
Chain of Ribosomal protein S6 kinase alpha-3 (P51812 whole entry): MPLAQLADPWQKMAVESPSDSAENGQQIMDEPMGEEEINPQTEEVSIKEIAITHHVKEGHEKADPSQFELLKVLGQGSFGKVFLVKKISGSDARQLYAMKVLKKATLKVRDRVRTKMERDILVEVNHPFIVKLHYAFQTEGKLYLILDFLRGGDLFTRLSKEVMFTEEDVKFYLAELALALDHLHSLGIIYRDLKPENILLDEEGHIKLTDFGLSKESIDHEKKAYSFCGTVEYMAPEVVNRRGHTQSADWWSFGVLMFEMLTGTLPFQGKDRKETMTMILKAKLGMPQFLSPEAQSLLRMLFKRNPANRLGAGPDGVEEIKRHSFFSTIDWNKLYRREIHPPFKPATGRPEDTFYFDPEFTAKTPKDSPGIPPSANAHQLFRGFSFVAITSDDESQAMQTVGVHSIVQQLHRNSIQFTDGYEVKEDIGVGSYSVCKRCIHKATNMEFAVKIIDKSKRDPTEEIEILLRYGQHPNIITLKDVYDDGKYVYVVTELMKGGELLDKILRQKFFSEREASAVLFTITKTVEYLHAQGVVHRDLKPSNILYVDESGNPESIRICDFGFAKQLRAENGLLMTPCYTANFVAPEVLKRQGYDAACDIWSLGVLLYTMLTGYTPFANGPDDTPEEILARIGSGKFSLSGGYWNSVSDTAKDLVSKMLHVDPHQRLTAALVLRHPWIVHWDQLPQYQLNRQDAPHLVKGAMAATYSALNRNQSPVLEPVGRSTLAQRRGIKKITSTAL
Chain of Receptor tyrosine-protein kinase erbB-4 (Q15303 whole entry): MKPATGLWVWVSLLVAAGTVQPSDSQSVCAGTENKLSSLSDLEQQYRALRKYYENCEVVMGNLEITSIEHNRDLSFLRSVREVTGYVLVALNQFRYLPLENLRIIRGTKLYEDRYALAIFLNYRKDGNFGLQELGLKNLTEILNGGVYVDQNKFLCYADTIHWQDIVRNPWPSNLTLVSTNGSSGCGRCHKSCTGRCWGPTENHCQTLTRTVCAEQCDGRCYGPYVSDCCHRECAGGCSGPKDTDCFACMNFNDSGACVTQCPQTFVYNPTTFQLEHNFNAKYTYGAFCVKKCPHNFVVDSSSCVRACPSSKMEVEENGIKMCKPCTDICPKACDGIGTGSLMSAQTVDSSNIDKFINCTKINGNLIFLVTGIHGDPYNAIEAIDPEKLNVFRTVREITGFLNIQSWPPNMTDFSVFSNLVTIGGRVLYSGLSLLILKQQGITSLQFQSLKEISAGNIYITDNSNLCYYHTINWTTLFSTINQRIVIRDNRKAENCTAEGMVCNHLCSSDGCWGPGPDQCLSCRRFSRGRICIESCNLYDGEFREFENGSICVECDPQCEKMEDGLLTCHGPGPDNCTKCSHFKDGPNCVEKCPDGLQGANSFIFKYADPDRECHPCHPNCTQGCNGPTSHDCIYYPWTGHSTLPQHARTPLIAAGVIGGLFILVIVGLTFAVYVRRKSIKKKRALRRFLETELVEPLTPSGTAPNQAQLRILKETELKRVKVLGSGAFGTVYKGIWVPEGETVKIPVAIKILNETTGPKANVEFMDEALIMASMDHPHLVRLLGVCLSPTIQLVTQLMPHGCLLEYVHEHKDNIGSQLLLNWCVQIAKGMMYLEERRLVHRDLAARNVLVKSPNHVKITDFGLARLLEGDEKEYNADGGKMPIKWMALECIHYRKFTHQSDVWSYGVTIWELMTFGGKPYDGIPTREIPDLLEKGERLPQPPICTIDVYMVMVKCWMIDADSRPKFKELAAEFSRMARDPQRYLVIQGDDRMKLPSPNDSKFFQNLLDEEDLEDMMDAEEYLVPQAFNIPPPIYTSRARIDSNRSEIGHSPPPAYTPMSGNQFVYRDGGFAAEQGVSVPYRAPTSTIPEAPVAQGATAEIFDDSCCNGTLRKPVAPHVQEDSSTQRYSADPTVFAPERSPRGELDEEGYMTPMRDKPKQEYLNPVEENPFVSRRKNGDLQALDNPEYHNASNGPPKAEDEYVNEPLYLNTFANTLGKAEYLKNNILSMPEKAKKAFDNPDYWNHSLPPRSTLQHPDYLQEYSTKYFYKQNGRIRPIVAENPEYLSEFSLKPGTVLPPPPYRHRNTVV
Chain of Tyrosine-protein kinase Lyn (P07948 whole entry): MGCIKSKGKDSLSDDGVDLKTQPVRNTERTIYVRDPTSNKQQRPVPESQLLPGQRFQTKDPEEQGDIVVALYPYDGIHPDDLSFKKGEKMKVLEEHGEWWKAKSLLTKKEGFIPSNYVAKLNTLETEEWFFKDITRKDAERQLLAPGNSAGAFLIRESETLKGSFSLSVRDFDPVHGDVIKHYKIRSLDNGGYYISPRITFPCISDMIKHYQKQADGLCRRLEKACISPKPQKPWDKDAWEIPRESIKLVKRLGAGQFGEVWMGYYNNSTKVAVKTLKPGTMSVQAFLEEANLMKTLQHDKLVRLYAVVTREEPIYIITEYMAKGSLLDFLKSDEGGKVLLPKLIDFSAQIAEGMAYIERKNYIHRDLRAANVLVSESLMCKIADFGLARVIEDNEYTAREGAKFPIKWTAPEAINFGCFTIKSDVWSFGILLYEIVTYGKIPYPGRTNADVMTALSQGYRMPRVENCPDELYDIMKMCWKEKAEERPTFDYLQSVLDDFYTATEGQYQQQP

CC(C)(/C=C(\C#N)C(=O)N1CCC[C@H](n2nc(-c3ccc(Oc4ccccc4)cc3F)c3c(N)ncnc32)C1)N1CCN(C2COC2)CC1
pIC50 [1]: 7.95

CC(C)(C)/C=C(/C#N)C(=O)N1CCC[C@@H](n2nc(-c3ccc(Oc4ccccc4)cc3)c3c(N)ncnc32)C1
pIC50 [2]: < 5.30
pIC50 [3]: 8.40
Occ [4]: 55%

C=CC(=O)Nc1cccc(Nc2nc(Nc3ccc(OCCOC)cc3)ncc2F)c1 [SPEBRUTINIB]
pIC50 [5]: 5.36
pIC50 [6]: 8.21

CN(C1COC1)C(C)(C)/C=C(\C#N)C(=O)N1CCC[C@H]1Cn1nc(-c2ccc(Oc3ccccc3)cc2F)c2c(N)ncnc21
Selectivity ratio (Homo sapiens [7]): > 1000
TIME [8]: 161 h
Selectivity ratio (Homo sapiens [9]): 60
pKd [10]: 9.27
Selectivity ratio (Homo sapiens [11]): > 1000

Cc1cc2[nH]ncc2cc1-c1cccc2c(N)c(C(N)=O)nnc12
pIC50 [3]: 8.70

C=CC(=O)Nc1cccc(Oc2nc(Nc3ccc(N4CCN(C)CC4)cc3)nc3ccoc23)c1 [POSELTINIB]
pIC50 [3]: 6.19

From ChEMBL document CHEMBL4152198, “The development of Bruton's tyrosine kinase (BTK) inhibitors from 2012 to 2017: A mini-review” (Eur J Med Chem, 2018)
